Target: T1, ΔF508-CFTR (Homo sapiens, UniProt P13569, DEL508-508)
T1 construct: expressed in transfected cells
Experiment: Membrane potential optical assay (FRET/VIPR), identification of correction compounds
Type: cell-based
Outline: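 Corrector screen: FRET voltage-sensor dyes (CC2-DMPE donor, DiSBAC2(3)) report Cl^− efflux-driven depolarization after 10 μM forskolin and 20 μM genistein in Cl^−-free medium. Beforehand, ΔF508-CFTR NIH3T3 fibroblasts received compound for 16 hrs at 37° C; temperature-corrected cells (27° C) served as positive control.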

T1 sequence (P13569 with tags, fused parts or gaps DEL508-508): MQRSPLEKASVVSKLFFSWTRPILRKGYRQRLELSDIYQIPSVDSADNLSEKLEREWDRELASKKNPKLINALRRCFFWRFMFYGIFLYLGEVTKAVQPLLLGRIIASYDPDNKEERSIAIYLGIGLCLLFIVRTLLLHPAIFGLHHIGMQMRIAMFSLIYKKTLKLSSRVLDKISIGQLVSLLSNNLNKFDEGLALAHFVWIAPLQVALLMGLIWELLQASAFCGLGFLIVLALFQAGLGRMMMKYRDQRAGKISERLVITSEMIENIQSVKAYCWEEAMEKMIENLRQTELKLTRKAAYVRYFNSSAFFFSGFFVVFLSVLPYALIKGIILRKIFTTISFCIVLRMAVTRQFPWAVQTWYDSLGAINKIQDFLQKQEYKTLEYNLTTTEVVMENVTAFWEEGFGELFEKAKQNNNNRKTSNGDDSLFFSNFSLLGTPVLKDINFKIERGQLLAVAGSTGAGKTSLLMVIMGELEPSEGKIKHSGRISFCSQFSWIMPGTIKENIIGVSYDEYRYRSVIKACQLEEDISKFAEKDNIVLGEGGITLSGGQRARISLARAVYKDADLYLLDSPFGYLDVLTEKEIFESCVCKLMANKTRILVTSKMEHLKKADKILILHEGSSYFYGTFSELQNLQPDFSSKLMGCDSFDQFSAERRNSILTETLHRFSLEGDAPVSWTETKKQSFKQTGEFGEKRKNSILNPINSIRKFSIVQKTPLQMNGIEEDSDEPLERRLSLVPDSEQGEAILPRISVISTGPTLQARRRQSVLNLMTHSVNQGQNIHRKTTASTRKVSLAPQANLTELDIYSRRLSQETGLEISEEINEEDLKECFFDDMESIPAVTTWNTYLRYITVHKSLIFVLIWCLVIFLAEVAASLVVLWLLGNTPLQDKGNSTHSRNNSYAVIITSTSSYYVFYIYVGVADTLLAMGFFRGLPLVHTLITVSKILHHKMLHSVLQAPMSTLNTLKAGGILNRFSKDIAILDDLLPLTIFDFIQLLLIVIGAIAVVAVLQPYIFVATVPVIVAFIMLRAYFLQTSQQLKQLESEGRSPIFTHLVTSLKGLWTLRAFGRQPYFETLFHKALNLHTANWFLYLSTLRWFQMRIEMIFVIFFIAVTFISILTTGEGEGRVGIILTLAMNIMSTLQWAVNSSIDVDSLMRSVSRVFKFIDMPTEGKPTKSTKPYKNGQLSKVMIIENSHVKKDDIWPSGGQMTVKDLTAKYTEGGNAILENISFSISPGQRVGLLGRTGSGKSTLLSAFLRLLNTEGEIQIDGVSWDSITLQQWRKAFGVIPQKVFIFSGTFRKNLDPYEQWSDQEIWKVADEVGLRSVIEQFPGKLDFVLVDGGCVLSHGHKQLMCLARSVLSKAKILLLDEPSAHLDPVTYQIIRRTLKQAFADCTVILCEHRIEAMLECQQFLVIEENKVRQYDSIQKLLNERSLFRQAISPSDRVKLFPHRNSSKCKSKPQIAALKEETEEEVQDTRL

Row | SMILES | EC50 | Emax (relative efficacy) | % Efficacy (relative efficacy)
1 | CC(c1nc2ccccc2c(=O)n1C)N1CCN(S(=O)(=O)c2ccccc2Cl)CC1 (centres unmarked) [compound 229] | 25 to 60 µM | 25 to 100% | –
2 | CC(c1nc2cccc(Cl)c2c(=O)n1C)N1CCN(S(=O)(=O)c2ccccc2)CC1 (centres unmarked) [compound 103] | 10 to 25 µM | < 25% | –
3 | CCCn1c(C(C)N2CCN(C(=O)c3ccc4ccccc4c3)CC2)nc2ccccc2c1=O (centres unmarked) [compound 30] | 25 to 60 µM | 25 to 100% | –
4 | CNc1nc(C(C)N2CCN(S(=O)(=O)c3ccc(OC)cc3)CC2)nc2ccccc12 (centres unmarked) [compound 192] | 25 to 60 µM | 25 to 100% | –
5 | CC(c1nc2ccc(C(N)=O)cc2c(=O)n1C)N1CCN(S(=O)(=O)c2ccc(Br)cc2)CC1 (centres unmarked) [compound 156] | 10 to 25 µM | 25 to 100% | –
6 | COc1ccc(S(=O)(=O)N2CCN(C(C)c3nc(OC4CCCC4)c4ccccc4n3)CC2)cc1 (centres unmarked) [compound 191] | < 10 µM | – | +++ (“+++” means >100%)
7 | CC(=O)N1CCN(C(C)c2nc3ccc(Cl)cc3c(=O)n2C)CC1 (centres unmarked) [compound 60] | 25 to 60 µM | < 25% | –
8 | COc1cc(C(=O)N2CCN(C(C)c3nc4ccc(Cl)cc4c(=O)n3C)CC2)cc(OC)c1OC (centres unmarked) [compound 14] | 25 to 60 µM | < 25% | –
9 | CC(C)c1ccc(S(=O)(=O)N2CCN(C(C)c3nc4ccccc4c(=O)n3C)CC2)cc1 (centres unmarked) [compound 273] | 25 to 60 µM | < 25% | –
10 | COc1ccc2nc(C(C)N3CCN(S(=O)(=O)c4ccc(Cl)cc4)CC3)n(C)c(=O)c2c1 (centres unmarked) [compound 136] | < 10 µM | > 100% | –

Further lines, results first:

Row | EC50 | Emax (relative efficacy) | % Efficacy (relative efficacy) | SMILES
11 | 25 to 60 µM | 25 to 100% | – | COc1ccc(S(=O)(=O)N2CCN(C(C)c3nc(N4CC(C)CC(C)C4)c4ccccc4n3)CC2)cc1 (centres unmarked) [compound 316]
12 | < 10 µM | > 100% | – | COc1ccc(S(=O)(=O)N2CCN(C3(c4nc(N5CCCCC5)c5ccccc5n4)CC3)CC2)cc1 [compound 387]
13 | 25 to 60 µM | 25 to 100% | – | COc1cc2nc(C(C)N3CCN(S(=O)(=O)c4ccc(Br)cc4)CC3)n(C)c(=O)c2cc1OC (centres unmarked) [compound 284]
14 | 25 to 60 µM | 25 to 100% | – | CCC(c1nc2ccccc2c(=O)[nH]1)N1CCN(S(=O)(=O)c2ccc(OC)cc2)CC1 (centres unmarked) [compound 334]
15 | < 10 µM | > 100% | – | COc1ccc(S(=O)(=O)N2CCN(C(C)c3nc(OC4CCC5CC4C5)c4ccccc4n3)CC2)cc1 (centres unmarked) [compound 400]
16 | < 10 µM | > 100% | – | COc1ccc(S(=O)(=O)N2CCC(C(C)c3nc(OC4CCCC4)c4ccccc4n3)CC2)cc1 (centres unmarked) [compound 403]
